Results from patent EP4603105A1, “PHARMACEUTICAL COMPOSITION CONTAINING CYCLIC COMPOUND HAVING SELECTIVE KRAS INHIBITORY EFFECT AGAINST HRAS AND NRAS” (CHUGAI SEIYAKU KABUSHIKI KAISHA, priority 2022, dated 2024).
Read-outs that look alike come from different tables or passages of the source.

How the values were obtained:
[1] = target: GDP-bound KRAS wild-type protein (Homo sapiens, UniProt P01116); assay: Binding to KRAS by surface plasmon resonance (SPR), dissociation constant KD; conditions: Single Cycle Kinetics
How it was run: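 Running buffer contained 10 µM GDP and 10 mM MgCl2 to keep RAS in the GDP state, with 4% DMSO at pH 7.4. Compounds were flowed at 100 µL/min in 75 s steps of rising concentration over captured biotin-Avi RAS at 30°C. Sensorgrams were fitted 1:1 for KD.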

[2] = system: human pancreatic cancer strain KP4; assay type: cell-based
Protocol: (§1) A test compound was dispensed into a U-bottom 384-well plate as 40 nL serially diluted dimethyl sulfoxide solutions using a liquid handler Echo (LABCYTE). As for human pancreatic cancer strain KP4 (Institute of Physical and Chemical Research), a cell suspension was prepared so as to have 500 cells/40 µL in a DMEM/Ham's F-12 medium (Nacalai Tesque) supplemented with 10% fetal bovine serum (Sigma). This cell suspension was dispensed in an amount of 40 µL per well into a plate containing the test compound, and cultured at 37°C in a 5% carbon dioxide gas incubator. Seven days later, 20 µL of CellTiter-Glo (registered trademark) (Promega) was added to each well and luminescence was measured.

[3] = system: human bladder cancer strain UM-UC-3; assay type: cell-based
Protocol: as §1, with “bladder” for “pancreatic”, “UM-UC-3 (ATCC),” for “KP4 (Institute of Physical and Chemical Research),”, “250” for “500”, “an MEM” for “a DMEM/Ham's F-12”, “(Sigma), an MEM non-essential amino acids solution (100X), and 1 mmol/L sodium pyruvate.” for “(Sigma).”, “measured. […]” for “measured.”

[4] = system: human lung cancer strain NCI-H441; assay type: cell-based
How it was run: (§2)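 Proliferation was scored by […] measured after the reagent was added to cultures kept at 37°C in 5% carbon dioxide.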

[5] = system: human gastric cancer strain GSU; assay type: cell-based
Protocol: as §1, with “gastric” for “pancreatic”, “GSU” for “KP4”, “200” for “500”, “an RPMI-1640” for “a DMEM/Ham's F-12”, “(Sigma)” for “(Nacalai Tesque)”

[6] = system: human colorectal cancer strain GP2d; assay type: cell-based
Protocol: as §1, with “colorectal” for “pancreatic”, “GP2d (ECACC),” for “KP4 (Institute of Physical and Chemical Research),”, “Dulbecco's modified Eagle” for “DMEM/Ham's F-12”, “medium” for “medium (Nacalai Tesque)”

[7] = system: human gastric cancer strain SNU-1; assay type: cell-based
Protocol: as §1, with “gastric” for “pancreatic”, “SNU-1 (ATCC),” for “KP4 (Institute of Physical and Chemical Research),”, “250” for “500”, “an RPMI-1640” for “a DMEM/Ham's F-12”, “(Sigma)” for “(Nacalai Tesque)”, “(Sigma), a 2.5 g/L D-(+)-glucose solution, 10 mmol/L HEPES, and 1 mmol/L sodium pyruvate.” for “(Sigma).”

[8] = target: GDP-bound NRAS wild-type protein (Homo sapiens, UniProt P01111); assay: Binding to NRAS by surface plasmon resonance (SPR), KD and KD ratio to KRAS
How it was run: (§3)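 Single-cycle kinetics on GDP-loaded biotin-Avi RAS captured to ~100–300 RU; 75 s ascending injections, 100 µL/min, 30°C. HBS pH 7.4 + 10 mM MgCl2/10 µM GDP/4% DMSO. 1:1 fit, KD.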

HRAS wild-type protein = HRAS wild-type protein (Homo sapiens, UniProt P01112); assay: Binding to HRAS by surface plasmon resonance (SPR), KD and KD ratio to KRAS
How it was run: as §3

[9] = system: human ovarian cancer strain OV7; assay type: cell-based
Protocol: as §1, with “ovarian” for “pancreatic”, “OV7 (ECACC),” for “KP4 (Institute of Physical and Chemical Research),”, “250” for “500”, “5%” for “10%”, “(Sigma), 0.5 µg/mL hydrocortisone, and 10 µg/mL insulin.” for “(Sigma).”

[10] = system: human lung cancer strain NCI-H441; assay: NCI-H441 cell proliferation inhibitory activity (CellTiter-Glo, 4 days); assay type: cell-based; conditions: NCI-H441 cells, 4 days, read-out: NCl-H441 IC50
How it was run: as §2

[11] = ratio of KD for GDP-bound NRAS wild-type protein to KD for KRAS
[12] = ratio of KD for HRAS wild-type protein to KD for KRAS

Sequence of GDP-bound KRAS wild-type protein (P01116 1-188 isoform P01116-2): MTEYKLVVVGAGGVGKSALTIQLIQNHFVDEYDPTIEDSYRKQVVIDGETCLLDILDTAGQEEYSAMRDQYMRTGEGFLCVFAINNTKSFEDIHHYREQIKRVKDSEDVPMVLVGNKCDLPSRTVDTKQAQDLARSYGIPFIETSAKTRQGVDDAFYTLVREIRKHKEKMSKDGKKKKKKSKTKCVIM
Sequence of GDP-bound NRAS wild-type protein (P01111 whole entry): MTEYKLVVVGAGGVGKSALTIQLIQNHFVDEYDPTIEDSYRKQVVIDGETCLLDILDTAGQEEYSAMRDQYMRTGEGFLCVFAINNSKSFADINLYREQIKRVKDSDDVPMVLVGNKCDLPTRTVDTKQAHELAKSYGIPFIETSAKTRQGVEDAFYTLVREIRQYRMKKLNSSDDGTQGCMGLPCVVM
Sequence of HRAS wild-type protein (P01112 whole entry): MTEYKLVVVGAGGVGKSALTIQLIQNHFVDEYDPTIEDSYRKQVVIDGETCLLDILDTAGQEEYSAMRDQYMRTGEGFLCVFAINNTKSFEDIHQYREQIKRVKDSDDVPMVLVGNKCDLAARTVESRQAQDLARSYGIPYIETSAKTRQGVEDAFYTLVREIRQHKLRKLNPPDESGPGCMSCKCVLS

Row | SMILES | Kd [1] [nM] | IC50 [2] [nM] | IC50 [3] [nM] | IC50 [4] [nM] | IC50 [5] [nM] | IC50 [6] [nM] | IC50 [7] [nM] | NRAS /KRAS [8, 11] | HRAS /KRAS (HRAS wild-type protein; [12]) | IC50 [9] [nM] | Kd ([1]; 1:1 binding model) [nM] | NRAS /KRAS ([8]; ratio of KD value for GDP-bound NRAS wild-type protein to KD value for KRAS (SPR)) | HRAS /KRAS (HRAS wild-type protein; ratio of KD value for HRAS wild-type protein to KD value for KRAS (SPR)) | NRAS /KRAS ([8]; ratio of the KD value with respect to GDP-bound NRAS wild-type protein to the KD value with respect to KRAS) | HRAS /KRAS (HRAS wild-type protein; ratio of the KD value with respect to HRAS wild-type protein to the KD value with respect to KRAS) | IC50 [10] [nM]
1 | CCO[C@@H]1C[C@H]2C(=O)NC3(CCCC3)C(=O)N(C)[C@@H](C3CCCC3)C(=O)N(C)[C@H](C(=O)N(C)C)CC(=O)N(C)[C@@H](CC(C)C)C(=O)N[C@@H]([C@@H](C)CC)C(=O)N(C)CC(=O)N(C)[C@H]3C/C=C\CCN(C3=O)[C@@H](Cc3ccc(C(F)(F)F)cc3)C(=O)N(C)CC(=O)N[C@@H](CCc3cc(F)c(C(F)(F)F)c(F)c3)C(=O)N2C1 [PP1105, (2S,8S,12R,14S,20S,23S,27S,30S,36S,38Z)-20-cyclopentyl-8-[2-[3,5-difluoro-4-(trifluoromethyl)phenyl]ethyl]-12-ethoxy-27-isobutyl-N,N,4,19,22,26,32,35-octamethyl-30-[(1S)-1-methylpropyl]-3,6,9,15,18,21,25,28,31,34,42-undecaoxo-2-[[4-(trifluoromethyl)phenyl]methyl]spiro[1,4,7,10,16,19,22,26,29,32,35-undecazatricyclo[34.5.1.0^10,14]dotetracont-38-ene-17,1'-cyclopentane]-23-carboxamide] | 0.07 | 3.1 | 2.1 | 12 | 0.3 | 2.9 | 2.7 | A (a compound having 10 or more and less than 20 is denoted as A) | A (a compound having 10 or more and less than 20 is denoted as A) | 8.1 | – | – | – | – | – | –
2 | CCCC[C@H]1C(=O)N[C@@H]([C@@H](C)CC)C(=O)N(C)CC(=O)N(C)[C@H]2C/C=C\CCN(C2=O)[C@@H](Cc2ccc(C(F)(F)F)cc2)C(=O)N(C)CC(=O)N[C@@H](CCc2cc(F)c(C(F)(F)F)c(F)c2)C(=O)N2C[C@H](F)C[C@H]2C(=O)NC2(CC(C)(C)C2)C(=O)N(C)[C@@H](C2CCCC2)C(=O)N(C)[C@H](C(=O)N(C)C)CC(=O)N1C [PP1693, (2S,8S,12R,14S,20S,23S,27S,30S,36S,38Z)-27-butyl-20-cyclopentyl-8-[2-[3,5-difluoro-4-(trifluoromethyl)phenyl]ethyl]-12-fluoro-N,N,3',3',4,19,22,26,32,35-decamethyl-30-[(1S)-1-methylpropyl]-3,6,9,15,18,21,25,28,31,34,42-undecaoxo-2-[[4-(trifluoromethyl)phenyl]methyl]spiro[1,4,7,10,16,19,22,26,29,32,35-undecazatricyclo[34.5.1.0^10,14]dotetracont-38-ene-17,1'-cyclobutane]-23-carboxamide] | – | 14.2 | 4.1 | 1.1 | 0.5 | 2.4 | 4.3 | – | – | 7.4 | 0.027 | AA (a compound having 20 or more is denoted as AA) | A (a compound having 10 or more and less than 20 is denoted as A) | – | – | –
3 | CCC[C@H]1C(=O)N[C@@H]([C@@H](C)CC)C(=O)N2CCC[C@H]2C(=O)N(C)[C@H]2C/C=C\CCN(C2=O)[C@@H](Cc2ccc(C(F)(F)F)cc2)C(=O)N(C)CC(=O)N[C@@H](CCc2ccc(C(F)(F)F)c(OC)c2)C(=O)N2C[C@H](OCC)C[C@H]2C(=O)N(C)C2(CCC2)C(=O)N(C)[C@@H](C2CCCC2)C(=O)N(C)[C@H](C(=O)N(C)C)CC(=O)N1C [PP2320, (1S,4S,10S,13S,17S,20S,26S,28R,32S,38S,42Z)-20-cyclopentyl-28-ethoxy-32-[2-[3-methoxy-4-(trifluoromethyl)phenyl]ethyl]-N,N,2,14,18,21,24,36-octamethyl-10-[(1S)-1-methylpropyl]-3,9,12,15,19,22,25,31,34,37,45-undecaoxo-13-propyl-38-[[4-(trifluoromethyl)phenyl]methyl]spiro[2,8, 11,14,18,21,24,30,33,36,39-undecazatetracyclo[37.5.1.0^4,8.0^26,30]pentatetracont-42-ene-23,1'-cyclobutane]-17-carboxamide] | – | 4.8 | 1.3 | 0.6 | 1.2 | 3.1 | 5.6 | – | – | 8.7 | – | – | – | A (a compound having 10 or more and less than 20 is denoted as A) | A (a compound having 10 or more and less than 20 is denoted as A) | –
4 | CCO[C@@H]1C[C@H]2C(=O)NC3(CCCC3)C(=O)N(C)[C@@H](C3CCCC3)C(=O)N(C)[C@H](C(=O)N(C)C)CC(=O)N(C)[C@@H](CC(C)C)C(=O)N[C@@H]([C@@H](C)CC)C(=O)N(C)CC(=O)N(C)[C@H]3C/C(F)=C\CCN(C3=O)[C@@H](Cc3ccc(C(F)(F)F)cc3)C(=O)N(C)CC(=O)N[C@@H](CCc3cc(F)c(C(F)(F)F)c(F)c3)C(=O)N2C1 [PP3510, (2S,8S,12R,14S,20S,23S,27S,30S,36S,38E)-20-cyclopentyl-8-[2-[3,5-difluoro-4-(trifluoromethyl)phenyl]ethyl]-12-ethoxy-38-fluoro-27-isobutyl-N,N,4,19,22,26,32,35-octamethyl-30-[(1S)-1-methylpropyl]-3,6,9,15,18,21,25,28,31,34,42-undecaoxo-2-[[4-(trifluoromethyl)phenyl]methyl]spiro[1,4,7,10,16,19,22,26,29,32,35-undecazatricyclo[34.5.1.0^10,14]dotetracont-38-ene-17,1'-cyclopentane]-23-carboxamide] | – | 16.8 | 11.5 | 11.1 | 1.2 | 13.7 | 6.6 | B (a compound having 3 or more and less than 10 is denoted as B) | B (a compound having 3 or more and less than 10 is denoted as B) | 23.6 | – | – | – | – | – | –
5 | CCC[C@H]1C(=O)N[C@@H]([C@@H](C)CC)C(=O)N2CC[C@H]2C(=O)N(C)[C@H]2C/C(F)=C\CCN(C2=O)[C@@H](Cc2ccc(C)cc2)C(=O)N(C)CC(=O)N[C@@H](CCc2ccc(C(F)(F)F)c(OC)c2)C(=O)N2C[C@H](OCC)C[C@H]2C(=O)N(C)C2(CCC2)C(=O)N(C)[C@@H](C2CCCC2)C(=O)N(C)[C@H](C(=O)N(C)C)CC(=O)N1C [PP3530] | 0.14 | – | – | – | – | – | – | B (a compound having 3 or more and less than 10 is denoted as B) | B (a compound having 3 or more and less than 10 is denoted as B) | – | – | – | – | – | – | 6.8
